Assay results published in patent US20180170941A1 (priority 2016, published 2018).
Where two headings read alike, the source gives them in different places.

Molecular target: T1, α5β3γ2 GABAA receptors (Ltk cell membranes) (Homo sapiens, UniProt P18507+P31644)
T1 construct: membranes
Test: Binding activity of test compounds on GABAAR: inhibition of [3H]Ro15-1788 binding
Method: Tissue culture and Membrane Preparation: The binding was performed on Ltk cells stably expressing GABAA receptors: α1β1γ2, α2β3γ2, α3β3γ2 and α5β3γ2 (provided by Merck Co., NJ, USA). Cells were seeded in 100 mm culture plates in DMEM/F12 medium containing 10% serum and antibiotics in 5% CO2 and allowed to grow for 1-2 days. GABAAR expression was then induced by dexamethasone as follows: 0.5 μM for 1 day for α5 containing and 2μM for 3 days for α1, α2 and α3 containing GABAARs. After induction, cells were collected by scraping into Dulbecco's Phosphate buffered saline (DPBS, pH 7.4, Invitrogen, Carlsbad, Calif., USA) and centrifuged at 150×g for 10 min. The pellet was washed twice by re-suspension and centrifugation. The cell pellets from at least 5 different preps were combined, suspended in the binding assay buffer (50 mM KH2P4; 1 mM EDTA; 0.2 M KCl, pH 7.4) and membranes prepared by sonication (3-5 times, 30 sec) using Branson Sonifier 150 (G.Heinmann, Germany). Protein content was determined using BCA assay (Bio-Rad Labs, Reinach, Switzerland) with Bovine Serum Albumin (Sigma Aldrich, St. Louis, Mo., USA) as the standard. Aliquots were prepared and stored at −20° C. for further use in binding assays.
Ligand Binding: Saturation binding curves were obtained by incubating membranes with increasing concentrations (0.01-8 nM) of [^3H]Ro15-1788 (Flumazepil, 75-85 Ci/mmol, PerkinElmer, MA, USA), with nonspecific binding measured in the presence of 10 μM diazepam.
All binding assays were performed for 1 h at 4° C. in assay buffer. The total assay volume was 0.5 ml containing 0.2 mg/ml protein for α5 and 0.4 mg/ml for α1, α2, and α3 containing GABAAR membranes. Incubations were terminated by filtration through GF/B filters using a 24-Cell Harvestor (Brandel, Gaithersburg, Md., USA) followed by 3 washes with ice-cold assay buffer. Filters were transferred to scintillation vials, 5 ml scintillation liquid added, vortex-mixed and kept in dark. Next day, radioactivity was obtained using a scintillation counter (Beckman Coulter, Brea, Calif., USA). All assays were performed in triplicate.
Data Analyses: Saturation and inhibition curves were obtained using GraphPad Prism software (GraphPad Software, Inc., CA, USA).

[1] = GABA α5 Binding Ki Values, inhibition of [3H]Ro15-1788 binding, reported as ranges

T1 sequence (P31644 32-462): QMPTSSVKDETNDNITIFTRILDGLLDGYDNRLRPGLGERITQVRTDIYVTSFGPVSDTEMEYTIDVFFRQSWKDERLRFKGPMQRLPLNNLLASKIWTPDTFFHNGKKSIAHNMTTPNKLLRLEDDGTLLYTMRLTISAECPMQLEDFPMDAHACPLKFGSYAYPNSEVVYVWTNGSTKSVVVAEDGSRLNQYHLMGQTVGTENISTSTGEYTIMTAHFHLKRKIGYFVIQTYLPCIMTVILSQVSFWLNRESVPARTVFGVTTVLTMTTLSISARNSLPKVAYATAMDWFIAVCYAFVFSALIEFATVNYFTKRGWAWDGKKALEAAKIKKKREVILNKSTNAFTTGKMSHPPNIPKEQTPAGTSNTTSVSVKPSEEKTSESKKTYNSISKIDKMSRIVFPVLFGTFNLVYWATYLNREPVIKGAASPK
T1 sequence (P28472 26-473 partner): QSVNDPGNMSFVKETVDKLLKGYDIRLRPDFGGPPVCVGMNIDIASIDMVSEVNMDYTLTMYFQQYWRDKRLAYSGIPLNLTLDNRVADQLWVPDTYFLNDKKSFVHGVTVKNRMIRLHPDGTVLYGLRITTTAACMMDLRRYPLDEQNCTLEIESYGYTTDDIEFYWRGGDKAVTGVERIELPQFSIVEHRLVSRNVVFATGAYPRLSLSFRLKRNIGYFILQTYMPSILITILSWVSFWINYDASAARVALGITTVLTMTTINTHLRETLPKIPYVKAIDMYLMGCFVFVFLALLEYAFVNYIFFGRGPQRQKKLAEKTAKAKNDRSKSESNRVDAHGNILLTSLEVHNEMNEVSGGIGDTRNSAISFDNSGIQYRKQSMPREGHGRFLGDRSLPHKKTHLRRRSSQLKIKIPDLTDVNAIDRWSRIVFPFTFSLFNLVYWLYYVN
T1 sequence (P18507 40-475): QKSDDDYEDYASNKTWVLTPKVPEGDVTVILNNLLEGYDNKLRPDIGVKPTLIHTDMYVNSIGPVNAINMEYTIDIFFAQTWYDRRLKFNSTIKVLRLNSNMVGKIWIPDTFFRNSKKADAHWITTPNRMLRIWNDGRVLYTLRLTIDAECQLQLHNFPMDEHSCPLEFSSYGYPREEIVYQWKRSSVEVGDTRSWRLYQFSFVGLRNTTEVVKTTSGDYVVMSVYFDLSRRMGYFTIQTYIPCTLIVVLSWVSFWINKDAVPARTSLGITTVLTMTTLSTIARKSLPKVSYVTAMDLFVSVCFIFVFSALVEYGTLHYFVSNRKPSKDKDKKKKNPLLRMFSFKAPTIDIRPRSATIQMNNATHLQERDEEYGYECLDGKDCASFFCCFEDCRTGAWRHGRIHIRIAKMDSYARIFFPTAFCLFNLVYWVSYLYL

| Compound | Ki [1] | Ki |
| --- | --- | --- |
| Cc1nnn2c1Cc1c(-c3ncon3)ncn1-c1ccc(F)cc1-2 [Compound 151] | < 100 nM |  |
| Cc1nnn2c1Cc1c(-c3cnn(C)c3)ncn1-c1ccc(F)cc1-2 [Compound 152] | > 1000 nM |  |
| Cc1nnn2c1Cc1c(C(=O)OC(C)C)ncn1-c1ccccc1-2 [Compound 153] | < 100 nM |  |
| Cc1cc(-c2ncn3c2Cc2c(C)nnn2-c2cc(F)ccc2-3)ccn1 [Compound 154] | > 1000 nM |  |
| CCc1nc(-c2ncn3c2Cc2c(C)nnn2-c2cc(F)ccc2-3)no1 [Compound 155] | < 100 nM |  |
| CC(C)OC(=O)c1ncn2c1Cn1c(COc3ccccc3)nnc1-c1cc(F)ccc1-2 [Compound 156] | < 100 nM |  |
| N#Cc1ncn2c1Cn1c(COc3ccccc3)nnc1-c1cc(F)ccc1-2 [Compound 157] | < 100 nM |  |
| CCc1nc(-c2ncn3c2Cn2c(COc4ccccc4)nnc2-c2cc(F)ccc2-3)no1 [Compound 158] | < 100 nM |  |
| Fc1ccc2c(c1)-c1nnc(COc3ccccc3)n1Cc1c(-c3noc(C(F)(F)F)n3)ncn1-2 [Compound 159] | < 100 nM |  |
| Cc1nnn2c1Cc1c(-c3noc(C(C)(C)C)n3)ncn1-c1ccc(F)cc1-2 [Compound 160] | < 100 nM |  |
| C#Cc1ncn2c1Cc1c(C)nnn1-c1ccccc1-2 [Compound 161] | < 100 nM |  |
| COc1ccc2c(c1)-c1nnc(COc3ccccc3)n1Cc1c(-c3noc(C)n3)ncn1-2 [Compound 162] | < 100 nM |  |
| COc1ccc2c(c1)-c1nnc(COc3ccc(F)cc3)n1Cc1c(-c3noc(C)n3)ncn1-2 [Compound 163] | < 100 nM |  |
| COCc1nnc2n1Cc1c(-c3noc(C)n3)ncn1-c1ccc(OC)cc1-2 [Compound 164] | < 100 nM |  |
| COc1ccc2c(c1)-c1nnc(COCc3ccccc3)n1Cc1c(-c3noc(C)n3)ncn1-2 [Compound 165] | < 100 nM |  |
| COc1ccc2c(c1)-c1nnc(COCc3ccccc3)n1Cc1c(C#N)ncn1-2 [Compound 166] | < 100 nM |  |
| COc1ccc2c(c1)-n1nnc(C)c1Cc1c(-c3nc(C)no3)ncn1-2 [Compound 167] | < 100 nM |  |
| COc1ccc2c(c1)-n1nnc(COc3cccc(F)c3)c1Cc1c(-c3noc(C)n3)ncn1-2 [Compound 168] | < 100 nM |  |
| COCc1nnc2n1Cc1c(-c3noc(C(C)C)n3)ncn1-c1ccc(OC)cc1-2 [Compound 169] | < 100 nM |  |
| COc1ccc2c(c1)-n1nnc(CN3CCCC3)c1Cc1c(-c3nc(C(C)C)no3)ncn1-2 [Compound 170] | 100 to 1000 nM |  |
| COc1ccc2c(c1)-c1nnc(COc3ccccc3)n1Cc1c(-c3noc(C(C)C)n3)ncn1-2 [Compound 171] | < 100 nM |  |
| COc1ccc2c(c1)-c1nnc(COc3ccc(F)cc3)n1Cc1c(-c3noc(C(C)C)n3)ncn1-2 [Compound 172] | < 100 nM |  |
| CCOCc1nnc2n1Cc1c(-c3noc(C(C)C)n3)ncn1-c1ccc(OC)cc1-2 [Compound 173] | < 100 nM |  |

| Compound | Ki [1] | Ki |
| --- | --- | --- |
| COc1ccc2c(c1)-c1nnc(COc3ccccc3F)n1Cc1c(-c3noc(C(C)C)n3)ncn1-2 [Compound 174] | < 100 nM |  |
| COc1ccc2c(c1)-c1nnc(COc3ccccc3Cl)n1Cc1c(-c3noc(C(C)C)n3)ncn1-2 [Compound 175] | < 100 nM |  |
| COc1ccc2c(c1)-c1nnc(COc3cccnc3)n1Cc1c(-c3noc(C(C)C)n3)ncn1-2 [Compound 176] | < 100 nM |  |
| COc1ccc2c(c1)-c1nnc(COc3cccc4ccccc34)n1Cc1c(-c3noc(C(C)C)n3)ncn1-2 [Compound 177] | < 100 nM |  |
| COc1ccc2c(c1)-c1nnc(COC3CCCC3)n1Cc1c(-c3noc(C(C)C)n3)ncn1-2 [Compound 178] | < 100 nM |  |
| COc1ccc2c(c1)-c1nnc(COc3cccc(F)c3)n1Cc1c(-c3noc(C(C)C)n3)ncn1-2 [Compound 179] | < 100 nM |  |
| COc1ccc2c(c1)-n1nnc(COc3ccc(F)cc3)c1Cc1c(-c3noc(C)n3)ncn1-2 [Compound 180] | < 100 nM |  |
| COc1ccc2c(c1)-n1nnc(COc3ccccc3F)c1Cc1c(-c3noc(C)n3)ncn1-2 [Compound 181] | < 100 nM |  |
| COc1ccc2c(c1)-n1nnc(COc3ccccc3)c1Cc1c(-c3noc(C)n3)ncn1-2 [Compound 182] | < 100 nM |  |
| COc1ccc2c(c1)-c1nnc(COCc3cccc(F)c3)n1Cc1c(-c3noc(C(C)C)n3)ncn1-2 [Compound 183] | < 100 nM |  |
| COc1ccc2c(c1)-c1nnc(COCc3ccccc3F)n1Cc1c(-c3noc(C(C)C)n3)ncn1-2 [Compound 184] | < 100 nM |  |
| CC(C)c1nc(-c2ncn3c2Cn2c(COc4cccnc4)nnc2-c2cc(F)ccc2-3)no1 [Compound 185] | < 100 nM |  |
| COCc1nnc2n1Cc1c(-c3noc(C(C)C)n3)ncn1-c1ccc(F)cc1-2 [Compound 186] | < 100 nM |  |
| CCOCc1nnc2n1Cc1c(-c3noc(C(C)C)n3)ncn1-c1ccc(F)cc1-2 [Compound 187] | < 100 nM |  |
| CC(C)c1nc(-c2ncn3c2Cn2c(COc4cccc(F)c4)nnc2-c2cc(F)ccc2-3)no1 [Compound 188] | < 100 nM |  |
| CC(C)c1nc(-c2ncn3c2Cn2c(COc4ccc(F)cc4)nnc2-c2cc(F)ccc2-3)no1 [Compound 189] | < 100 nM |  |
| Cc1cccc(C)c1OCc1nnc2n1Cc1c(-c3noc(C(C)C)n3)ncn1-c1ccc(F)cc1-2 [Compound 190] | < 100 nM |  |
| COc1ccc2c(c1)-c1nnc(COc3ccc(F)cc3)n1Cc1c(C#N)ncn1-2 [Compound 191] | 100 to 1000 nM |  |
| COc1ccc2c(c1)-c1nnc(COc3ccccc3C(C)(C)C)n1Cc1c(C#N)ncn1-2 [Compound 192] |  | > 1000 nM |
| COc1ccc2c(c1)-c1nnc(COc3ccccc3C(F)(F)F)n1Cc1c(C#N)ncn1-2 [Compound 193] |  | > 1000 nM |
| CCc1nc(-c2ncn3c2Cc2c(Cc4ccccc4)nnn2-c2cc(OC)ccc2-3)no1 [Compound 194] | < 100 nM |  |
| CCc1nc(-c2ncn3c2Cc2c(Cc4ccc(F)cc4)nnn2-c2cc(OC)ccc2-3)no1 [Compound 195] | < 100 nM |  |
| COc1ccc2c(c1)-c1nnc(COc3cccc(F)c3)n1Cc1c(C#N)ncn1-2 [Compound 196] | < 100 nM |  |

| Compound | Ki [1] | Ki |
| --- | --- | --- |
| N#Cc1ncn2c1Cn1c(COc3ccccc3)nnc1-c1cc(Cl)ccc1-2 [Compound 197] | < 100 nM |  |
| COCc1nnc2n1Cc1c(-c3nc(C)no3)ncn1-c1ccc(Cl)cc1-2 [Compound 198] | < 100 nM |  |
| FC(F)=Cc1ncn2c1Cn1c(COc3ccccc3)nnc1-c1cc(Cl)ccc1-2 [Compound 199] | < 100 nM |  |
| FC(F)c1ncn2c1Cn1c(COc3ccccc3)nnc1-c1cc(Cl)ccc1-2 [Compound 200] | 100 to 1000 nM |  |
| COc1ccc2c(c1)-c1nnc(COC(C)(C)C)n1Cc1c(-c3noc(C(C)C)n3)ncn1-2 [Compound 201] | 100 to 1000 nM |  |
| Clc1ccc2c(c1)-c1nnc(COc3ccccc3)n1Cc1c(Br)ncn1-2 [Compound 202] | < 100 nM |  |
| COc1ccc2c(c1)-c1nnc(COCc3cccnc3)n1Cc1c(-c3noc(C(C)C)n3)ncn1-2 [Compound 203] | < 100 nM |  |
| Clc1ccc2c(c1)-c1nnc(COc3ccccc3)n1Cc1c(C3OCCO3)ncn1-2 [Compound 204] |  | > 1000 nM |
| C#Cc1ncn2c1Cn1c(COc3ccccc3)nnc1-c1cc(Cl)ccc1-2 [Compound 205] | < 100 nM |  |
| COCc1nnc2n1Cc1c(-c3nc(C(C)C)no3)ncn1-c1ccc(Cl)cc1-2 [Compound 206] | < 100 nM |  |
| COc1ccc2c(c1)-n1nnc(Cc3ccccc3)c1Cc1c(C#N)ncn1-2 [Compound 207] | < 100 nM |  |
| COc1ccc2c(c1)-n1nnc(Cc3ccccc3Cl)c1Cc1c(C#N)ncn1-2 [Compound 208] | < 100 nM |  |
| COc1ccc2c(c1)-n1nnc(Cc3cccc(Cl)c3)c1Cc1c(C#N)ncn1-2 [Compound 209] | < 100 nM |  |
| COc1ccc2c(c1)-n1nnc(Cc3cccnc3)c1Cc1c(C#N)ncn1-2 [Compound 210] | < 100 nM |  |
| CCOCc1nnc2n1Cc1c(Br)ncn1-c1ccc(Cl)cc1-2 [Compound 216] | < 100 nM |  |
| COCc1nnc2n1Cc1c(Br)ncn1-c1ccc(Cl)cc1-2 [Compound 217] | < 100 nM |  |
| C#Cc1ncn2c1Cc1c(C(=O)c3ccc(F)cc3)nnn1-c1cc(OC)ccc1-2 [Compound 218] | < 100 nM |  |
| C#Cc1ncn2c1Cc1c(C(=O)c3ccc(Cl)cc3)nnn1-c1cc(OC)ccc1-2 [Compound 219] | 100 to 1000 nM |  |
| C=Cc1ncn2c1Cc1c(Cc3ccccc3)nnn1-c1cc(OC)ccc1-2 [Compound 220] | 100 to 1000 nM |  |
| C=Cc1ncn2c1Cc1c(Cc3ccc(C)cc3)nnn1-c1cc(OC)ccc1-2 [Compound 221] | > 1000 nM |  |
| COc1ccc2c(c1)-n1nnc(COc3ccc(F)cc3)c1Cc1c(C#N)ncn1-2 [Compound 222] | < 100 nM |  |
| COc1ccc2c(c1)-n1nnc(COc3ccccc3F)c1Cc1c(C#N)ncn1-2 [Compound 223] | < 100 nM |  |
